Experimental data taken from patent US4686215A, “Pharmaceutical composition and method for treating tumors susceptible to 2-carbamoylaziridine” (priority 1976, dated 1987).

Legend:
[1] = prior art compound; cited from earlier work
carcinosarcoma DS = settings: known drugs, prior art; cited from earlier work
SA-45 = assay: action in rats with SA-45 at late stages of tumor development (17 days after implantation); assay type: in vivo, rat; settings: group II; 10 animals; i.v. 1500 mg/kg, 17 days after tumor implantation
Description: (§1) Non-linear male rats with the starting weight 120-150 g were used in the experiments described hereinunder in Examples 1-4. All the animals were administered intravenously a single dose of the pharmaceutical composition in the form of the concentrated solution (10-30%) of the active principle in distilled water at a rate of 1500 mg/kg. The animals were decapitated on the 20th say from the day of the administration. All the animals received the usual laboratory ration.
The action of the pharmaceutical composition consisting of 30% solution of the active principle above formula where R is NH2, in distilled water was tested in rats with SA-45 at late stages of tumor development. The composition was administered 17 days after tumor implantation. The results of the experiment are presented in Table 4 where I--control animals, II--rats which were administered the pharmaceutical composition.

toxicity (LD50) = assay type: in vivo; settings: compared with prior art
implanted RMCC-1 = assay: action in rats with implanted RMCC-1 at late stage of tumor development (15 days after implantation); assay type: in vivo, rat; settings: group II, i.v. 1500 mg/kg
Description: as §1
The action of the same pharmaceutical composition as in Example 1 was tested in rats with implanted RMCC-1 at late stage of tumor development. The pharmaceutical composition was administered 15 days after tumor implanatation, the average weight of the tumor being 35 g. The groups of the animals are designated as in Example 1. None of the controls survived till the day of decapitation (the 20th day after the administration of the pharmaceutical composition to group II).

implanted SA-45 = assay: action in rats with implanted SA-45 at early stages of tumor development (48 hours after implantation); assay type: in vivo, rat; settings: group II; 10 animals; i.v. 1500 mg/kg, 48 hours after tumor implantation
Description: as §1
The action of the same pharmaceutical composition as in Example 1 was tested in rats with implanted SA-45 at early stages of tumor development. The pharmaceutical composition was administered 48 hours after tumor implantation. The results of the experiment are presented in Table 3, where I--control group, II--rats which were administered pharmaceutical composition.

[2] = test system: implanted mammary gland cancer (RMGC-1); assay: action on tumor growth in rats with implanted mammary gland cancer RMGC-1, early stage (24 hours after implantation); assay type: in vivo, rat; settings: 10 animals
Description: as §1
The action of the pharmaceutical composition consisting of 30% solution of the active principle of the above formula where R is NHNH2, in distilled water on tumor growth was tested in rats with implanted mammary gland cancer (RMGC-1). The results of the experiments are presented in Table 1, where I--control animals, II--rats which were administered the pharmaceutical composition, III--rats which were administered the same composition against the background of 90 minutes' hyperglycemia. The animals of groups II and III were administered the composition 24 hours after tumor implantation.

[3] = 6 animals, 15 days after tumor implantation, average tumor weight 35 g
[4] = group II, single i.v. dose 1500 mg/kg, 24 hours after tumor implantation, 20th day
[5] = group III, against the background of 90 minutes' hyperglycemia, i.v. 1500 mg/kg, 24 hours after implantation

N#CC1CN1C(N)=O (centres unmarked) [1-carbamoyl-2-cyano-aziridine]
LD50 [1]: 1 250 mg/kg
cure of rats with carcinosarcoma DS (carcinosarcoma DS): 47.4%

NC(=O)C1CN1 (centres unmarked) [2-carbamoylaziridine]
Complete disappearance of the tumor (animals) (SA-45): 6
No effect (animals) (SA-45): 2
Partial disappearance of the tumor (animals) (SA-45): 2
therapeutic index (toxicity (LD50)): considerably higher

NNC(=O)C1CN1 (centres unmarked) [active principle where R is NHNH2]
Life time increased by (implanted RMCC-1; animals with partial disappearance of the tumor, 15 days after implantation): 50%
Complete disappearance of the tumor (animals) (implanted RMCC-1; [3]): 3
Partial disappearance of the tumor (animals) (implanted RMCC-1; [3]): 3
Complete disappearance of the tumor (animals) (implanted SA-45): 3
No effect (animals) (implanted SA-45): 4
Partial disappearance of the tumor (animals) (implanted SA-45): 3
Complete disappearance of the tumor (animals) [2, 4]: 8
No effect (animals) [2, 4]: 2
Complete disappearance of the tumor (animals) [2, 5]: 7
No effect (animals) [2, 5]: 1
Partial disappearance of the tumor (animals) [2, 5]: 2
